{
  "source": "patent US9662356B1",
  "about": "“Propolis-metal nanoparticle composition and methods of use” (Vets Plus, Inc., priority 2015, dated 2017)",
  "origin": "cited, not measured here",
  "data": [
    {"system": "otitis externa", "conditions": "case history: treated previously over the course of the year", "values": [
      {"compound": "C[C@@H]1[C@H](O)[C@@H](C)/C=C/C=C/CC/C=C/C=C/C=C/C=C/C(O[C@H]2O[C@H](C)[C@@H](O)[C@H](N)[C@@H]2O)CC2O[C@](O)(CC(O)C(O)CCC(O)CC(O)CC(O)CC(=O)O[C@H]1C)CC(O)C2C(=O)O", "note": "(stereo partly drawn) [nystatin]", "outcome of previous antibiotic treatment of otitis externa": "to no avail"},
      {"compound": "polymyxin B", "outcome of previous antibiotic treatment of otitis externa": "to no avail"},
      {"compound": "neomycin", "outcome of previous antibiotic treatment of otitis externa": "to no avail"}
    ]}
  ]
}
